# Experimental data as given in ChEMBL document CHEMBL5614396, “Structure-Activity Relationship Studies in Benzothiadiazoles as Novel Vaccine Adjuvants” (J Med Chem, 2024).
# Tests used:
# [1] = Cytotoxicity against Balb/c mouse BMDC assessed as cell viability at 10 uM incubated for 20 hrs by MTT assay (reference value: 100 +/-0.6%); type: toxicity, cell-based; conditions: BMDC (bone marrow-derived dendritic cells), read-out: Activity
# BMDC [2] = assay: Vaccine adjuvant activity in Balb/c mouse BMDC assessed as induction of Ca2+ influx at 10 uM by Fura-2/8-AM dye based fluorescence analysis (reference value: 0%); type: functional
# THP-1 = assay: Vaccine adjuvant activity in human THP-1 cells expressing CD63-Turbo-luciferase and CD9-Emerald green fluorescent protein reporter assessed as extracellular vesicle release by measuring reporter activation at 10 uM incubated for 48 hrs by TurboLuc luciferase based chemiluminescence assay (reference value: 0%); type: functional
# BMDC [3] = assay: Vaccine adjuvant activity in Balb/c mouse BMDC assessed as increase in IL-12 production at 10 uM incubated for 20 hrs by ELISA (reference value: 1.35 +/-0.1 ng/ml); type: functional
SMILES,"viability at 20 h, 10 µM [1]",Activity (BMDC [2]),Activity (THP-1),Activity (BMDC [3])
CCOC(=O)c1cc(C)ccc1NS(=O)(=O)c1cccc2nsnc12,60.1%,-11.5%,10.8%,1.22 ng/mL
CCOC(=O)c1c(N(C)S(=O)(=O)c2cccc3nsnc23)sc(C)c1C,108%,-39.3%,-2%,1.19 ng/mL
CCOC(=O)c1c(NS(=O)(=O)c2ccc(Br)c3nsnc23)sc(C)c1C,96.3%,73.6%,70.3%,1.9 ng/mL
CCOC(=O)c1sc(C)c(C)c1NS(=O)(=O)c1cccc2nsnc12,130%,74.2%,154.1%,1.67 ng/mL
CCCOC(=O)c1c(NS(=O)(=O)c2cccc3nsnc23)sc(C)c1C,140%,147.4%,156.3%,3.5 ng/mL
Cc1cc(NS(=O)(=O)c2cccc3nsnc23)sc1C,113%,-11.4%,-0.9%,1.4 ng/mL
CCOC(=O)c1c(NS(=O)(=O)c2cccc3nsnc23)sc(-c2cccnc2)c1C,85.5%,11.8%,75.3%,1.05 ng/mL
Cc1sc(NS(=O)(=O)c2cccc3nsnc23)c(C(=O)OC(C)C)c1C,132%,178.4%,149.2%,3 ng/mL
CCOC(=O)c1c(NS(=O)(=O)c2cccc3nsnc23)sc(-c2ccoc2)c1C,82.8%,94.7%,114.4%,1.18 ng/mL
CCOC(=O)c1c(NS(=O)(=O)c2cccc(N)c2N)sc(C)c1C,107%,-6.8%,2.4%,1.39 ng/mL
CCOC(=O)c1c(NS(=O)(=O)c2cccc3nc(O)[nH]c23)sc(C)c1C,88.1%,-14.3%,0.4%,0.59 ng/mL
Cc1sc(NS(=O)(=O)c2cccc3nsnc23)c(C(=O)OCCCCCN)c1C,103%,-2.6%,0.7%,1.43 ng/mL
CCOC(=O)c1c(C)csc1NS(=O)(=O)c1cccc2nsnc12,100%,76.7%,99%,1.12 ng/mL
CCOC(=O)c1c(NS(=O)(=O)c2cccc3cccnc23)sc(C)c1C,110%,99.7%,60.4%,2 ng/mL
CCOC(=O)c1c(NS(=O)(=O)c2cccc3nsnc23)sc(Br)c1C,104%,102.9%,81.1%,1.03 ng/mL
CCOC(=O)c1c(NS(=O)(=O)c2cccc3ccncc23)sc(C)c1C,87.5%,4.1%,3.6%,1.12 ng/mL
Cc1sc(NS(=O)(=O)c2cccc3nsnc23)c(C(=O)OC(C)(C)C)c1C,118%,136.7%,128.8%,3.17 ng/mL
CCOC(=O)c1c(NS(=O)(=O)c2cccc3nsnc23)sc2c1CCN(C(=O)OC(C)(C)C)C2,104%,79.2%,100.4%,2.27 ng/mL
CCOC(=O)c1c(NS(=O)(=O)c2cccc3nsnc23)sc2c1CCNC2,94.8%,-35.3%,0.1%,0.72 ng/mL
CCOC(=O)c1c(NS(=O)(=O)c2cccc3ncccc23)sc(C)c1C,117%,-13.3%,0%,1.1 ng/mL

SMILES,"viability at 20 h, 10 µM [1]",Activity (BMDC [2]),Activity (THP-1),Activity (BMDC [3])
Cc1sc(NS(=O)(=O)c2cccc3nsnc23)c(C(=O)OCc2ccccc2)c1C,128%,175.5%,169.9%,2.74 ng/mL
CCOC(=O)c1c(C)cccc1NS(=O)(=O)c1cccc2nsnc12,88.8%,-14.2%,1%,1.14 ng/mL
CCOC(=O)c1c(NS(=O)(=O)c2cccc3nc(C)[nH]c23)sc(C)c1C,108%,-13.1%,3.4%,1.42 ng/mL
CCCCCCOC(=O)c1c(NS(=O)(=O)c2cccc3nsnc23)sc(C)c1C,106%,245%,185.3%,3.44 ng/mL
Cc1sc(NS(=O)(=O)c2cccc3nsnc23)c(C(=O)O)c1C,105%,-31.3%,-1.3%,1.43 ng/mL
CCOC(=O)c1c(NS(=O)(=O)c2cccc3nsnc23)sc(-c2cccs2)c1C,77%,100.6%,17.9%,1.03 ng/mL
CCOC(=O)c1c(NS(=O)(=O)c2cccc3nsnc23)sc2c1CCCC2,114%,102.1%,156.9%,1.83 ng/mL
CCOC(=O)c1c(NS(=O)(=O)c2cccc3nsnc23)sc(-c2ccccn2)c1C,68.1%,8.1%,30.5%,1.01 ng/mL
COC(=O)c1c(NS(=O)(=O)c2cccc3nsnc23)sc(C)c1C,114%,83.6%,30.1%,1.75 ng/mL
CCNC(=O)c1c(NS(=O)(=O)c2cccc3nsnc23)sc(C)c1C,100%,-28.3%,-0.6%,1.7 ng/mL
Cc1sc(NS(=O)(=O)c2cccc3nsnc23)c(C(=O)Oc2ccccc2)c1C,107%,85.3%,39.8%,1.58 ng/mL
CCOC(=O)c1c(NS(=O)(=O)c2cccc3nn[nH]c23)sc(C)c1C,102%,-9.6%,-0.7%,2.11 ng/mL
CCOC(=O)c1c(NS(=O)(=O)c2cccc3nsnc23)sc2ccccc12,99.1%,97%,98.3%,1.11 ng/mL
CCOC(=O)c1ccsc1NS(=O)(=O)c1cccc2nsnc12,72.5%,58.3%,60.9%,0.48 ng/mL
Cc1sc(NS(=O)(=O)c2cccc3nsnc23)c(C(=O)OCCCCCNC(=O)OC(C)(C)C)c1C,183%,103.9%,111.5%,4.14 ng/mL
CCOC(=O)c1c(NS(=O)(=O)c2cccc3nsnc23)sc2c1CCN(CC)C2,108%,-10.8%,1.3%,1.84 ng/mL
CCOC(=O)c1c(NS(=O)(=O)c2cccc3nc[nH]c23)sc(C)c1C,111%,-14.2%,2%,1.51 ng/mL
CCOC(=O)c1c(NS(=O)(=O)c2cccc3nsnc23)sc(C)c1CC,100%,117.6%,112%,2.27 ng/mL
CCOC(=O)c1nc(C)sc1NS(=O)(=O)c1cccc2nsnc12,93.3%,-7.9%,1.7%,0.92 ng/mL
